According to patent US10030020B2, “Spirocycle compounds and methods of making and using same” (Abide Therapeutics, Inc., priority 2016, dated 2018):
Read-outs that look alike come from different tables or passages of the source.

Tests used:
FAAH [1] = molecular target: T1, FAAH (Mus musculus (Mouse), UniProt O08914); assay: In vitro competitive activity-based protein profiling (mouse brain membrane fraction or cell lysates), FAAH band; format: biochemical; details: for inhibition at 1 µM: read-out: FAAH % Inh 1 μM (mouse); for IC50: competitive ABPP
Method in brief: (§1)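 Competitive ABPP: proteome 1.0 mg/mL protein + inhibitor, 30 min, 37° C; FP-Rh probe (stock 50 μM in DMSO) added, 30 min, 37° C; SDS quench, SDS-PAGE, fluorescent band intensity read.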

MAGL [2] = molecular target: T2, MAGL (Mus musculus (Mouse), UniProt O35678); assay: Mouse brain proteomes from inhibitor treated mice (oral gavage, sacrificed 4 h after administration, ABPP analysis); format: in vivo, mouse (C57Bl/6J); details: 5 mg/kg oral gavage
Method in brief: (§2)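 Mice (wild-type C57Bl/6J) receive inhibitor by oral gavage, e.g. in PEG400/Ethanol/PBS (7/2/1). Each animal is killed 4 h later. Brain proteomes are prepared and analyzed by ABPP, giving % inhibition at 5 mg/kg.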

MAGL [3] = molecular target: T2, MAGL; assay: In vitro competitive activity-based protein profiling (mouse brain membrane fraction or cell lysates), MAGL band; format: biochemical; details: for inhibition at 1 µM: read-out: MAGL % Inh 1 μM (mouse); for IC50: competitive ABPP
Method: In Vitro Competitive Activity-Based Protein Profiling.
Proteomes (mouse brain membrane fraction or cell lysates) (50 μL, 1.0 mg/mL total protein concentration) were preincubated with varying concentrations of inhibitors at 37° C. After 30 min, FP—Rh (1.0 μL, 50 μM in DMSO) was added and the mixture was incubated for another 30 min at 37° C. Reactions were quenched with SDS loading buffer (50 μL-4×) and run on SDS-PAGE.

ABHD6 [4] = molecular target: T3, ABHD6 (Mus musculus (Mouse), UniProt Q8R2Y0); assay: Mouse brain proteomes from inhibitor treated mice (oral gavage, sacrificed 4 h after administration, ABPP analysis), ABHD6; format: in vivo, mouse (C57Bl/6J); details: 5 mg/kg oral gavage
Method in brief: as §2

MAGL [5] = molecular target: MAGL (Homo sapiens (Human), UniProt Q99685); assay: In vitro competitive activity-based protein profiling (human prefrontal cortex or cell membrane fractions; hMAGL expressed in HEK293T cells); format: biochemical
Method in brief: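 Human prefrontal cortex or cell membrane proteomes (1.0-2.0 mg/mL), or lysates of HEK293T cells expressing hMAGL diluted into mock proteome, preincubated with inhibitor 30 min at 37° C. FP-Rh or JW912 probe then added for 30 min at room temperature. Residual labeling resolved by SDS-PAGE.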

FAAH [6] = molecular target: T1, FAAH; assay: Mouse brain proteomes from inhibitor treated mice (oral gavage, sacrificed 4 h after administration, ABPP analysis), FAAH; format: in vivo, mouse (C57Bl/6J); details: 5 mg/kg oral gavage
Method in brief: as §2

ABHD6 [7] = molecular target: T3, ABHD6; assay: In vitro competitive activity-based protein profiling (mouse brain membrane fraction or cell lysates), ABHD6 band; format: biochemical; details: for inhibition at 1 µM: read-out: ABHD6 % Inh 1 μM (mouse); for IC50: competitive ABPP
Method in brief: as §1

[8] = human proteome, competitive ABPP

T2 sequence (O35678 whole entry): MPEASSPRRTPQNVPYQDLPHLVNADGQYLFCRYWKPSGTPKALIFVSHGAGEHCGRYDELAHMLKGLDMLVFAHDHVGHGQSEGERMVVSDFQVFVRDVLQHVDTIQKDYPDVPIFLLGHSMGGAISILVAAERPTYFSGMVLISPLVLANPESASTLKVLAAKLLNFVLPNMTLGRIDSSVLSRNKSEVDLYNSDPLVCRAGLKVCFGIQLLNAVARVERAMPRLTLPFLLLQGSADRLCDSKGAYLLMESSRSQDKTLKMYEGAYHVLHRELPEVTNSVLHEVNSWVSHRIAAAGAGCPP
T1 sequence (O08914 whole entry): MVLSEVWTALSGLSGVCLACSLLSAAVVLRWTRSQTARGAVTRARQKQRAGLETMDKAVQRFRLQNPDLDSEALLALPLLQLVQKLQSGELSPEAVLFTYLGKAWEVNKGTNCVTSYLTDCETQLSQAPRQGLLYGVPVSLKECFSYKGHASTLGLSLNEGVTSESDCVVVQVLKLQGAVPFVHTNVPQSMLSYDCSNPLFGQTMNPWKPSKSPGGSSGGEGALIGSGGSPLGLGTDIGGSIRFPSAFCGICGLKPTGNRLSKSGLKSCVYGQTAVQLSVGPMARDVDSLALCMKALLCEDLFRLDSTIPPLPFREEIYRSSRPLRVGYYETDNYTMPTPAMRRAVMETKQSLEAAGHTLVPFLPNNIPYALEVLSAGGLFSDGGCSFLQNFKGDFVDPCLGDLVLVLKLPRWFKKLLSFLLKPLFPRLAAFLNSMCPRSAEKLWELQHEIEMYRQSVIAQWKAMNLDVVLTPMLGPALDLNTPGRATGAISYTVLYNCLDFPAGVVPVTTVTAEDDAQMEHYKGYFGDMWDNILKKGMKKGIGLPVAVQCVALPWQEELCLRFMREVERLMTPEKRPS
T3 sequence (Q8R2Y0 whole entry): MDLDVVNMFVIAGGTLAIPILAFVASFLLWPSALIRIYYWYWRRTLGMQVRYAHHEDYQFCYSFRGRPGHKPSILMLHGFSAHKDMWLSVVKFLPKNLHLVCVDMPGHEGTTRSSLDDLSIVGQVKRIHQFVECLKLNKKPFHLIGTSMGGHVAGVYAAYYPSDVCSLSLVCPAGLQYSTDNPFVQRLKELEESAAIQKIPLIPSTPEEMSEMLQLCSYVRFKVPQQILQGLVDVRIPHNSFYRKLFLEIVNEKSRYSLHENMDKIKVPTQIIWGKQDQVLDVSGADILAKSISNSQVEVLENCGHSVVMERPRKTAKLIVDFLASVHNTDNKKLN
Sequence of MAGL (Homo sapiens (Human), UniProt Q99685) (Q99685 whole entry): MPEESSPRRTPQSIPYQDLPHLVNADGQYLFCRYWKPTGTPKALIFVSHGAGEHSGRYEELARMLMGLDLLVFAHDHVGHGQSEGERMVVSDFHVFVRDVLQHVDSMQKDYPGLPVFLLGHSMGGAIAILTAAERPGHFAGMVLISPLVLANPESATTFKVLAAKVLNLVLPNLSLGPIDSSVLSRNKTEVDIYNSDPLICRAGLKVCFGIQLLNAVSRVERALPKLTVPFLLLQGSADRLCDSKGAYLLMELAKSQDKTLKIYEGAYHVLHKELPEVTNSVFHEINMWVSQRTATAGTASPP

Compound | inhibition at 1 µM (FAAH [1]; mouse proteome) | IC50 (FAAH [1]; mouse proteome) | MAGL % Inh 5 mg/kg (mouse) (MAGL [2]) | inhibition at 1 µM (MAGL [3]; mouse proteome) | IC50 (MAGL [3]; mouse proteome) | ABHD6 % Inh 5 mg/kg (mouse) (ABHD6 [4]) | IC50 (MAGL [5]; [8]) | FAAH % Inh 5 mg/kg (mouse) (FAAH [6]) | inhibition at 1 µM (ABHD6 [7]; mouse proteome) | IC50 (ABHD6 [7]; mouse proteome) | inhibition at 1 µM (FAAH [1]; mouse) | inhibition at 1 µM (MAGL [3]; mouse) | IC50 (MAGL [5]; human) | inhibition at 1 µM (ABHD6 [7]; mouse)
O=C(O)C1CN(c2cc(C(F)(F)F)ccc2CN2CCCC23CCN(C(=O)OC(C(F)(F)F)C(F)(F)F)CC3)CCO1 (stereo not drawn) [Example 197, 4-(2-((8-(((1,1,1,3,3,3-Hexafluoropropan-2-yl)oxy)carbonyl)-1,8-diazaspiro[4.5]decan-1-yl)methyl)-5-(trifluoromethyl)phenyl)morpholine-2-carboxylic acid] | < 25% | > 1000 nM | # (# is <25%) | > 75% | 100 to 1000 nM | # (# is <25%) | < 100 nM | # (# is <25%) | 25 to 75% | > 1000 nM |  |  |  | 
O=C(O)C1CCN(c2cc(C(F)(F)F)ccc2CN2CCCC23CCN(C(=O)OC(C(F)(F)F)C(F)(F)F)CC3)C1 (stereo not drawn) [Example 199] | < 25% | > 1000 nM | ## (## is equal to or greater than 25% but less than 75%) | > 75% | < 100 nM | # (# is <25%) | < 100 nM | # (# is <25%) | 25 to 75% | > 1000 nM |  |  |  | 
O=C(O)C1COCCN1c1cc(CN2CCCC23CCN(C(=O)OC(C(F)(F)F)C(F)(F)F)CC3)cc(C(F)(F)F)c1 (stereo not drawn) [Example 200] | < 25% |  | ## (## is equal to or greater than 25% but less than 75%) | > 75% |  | # (# is <25%) | < 100 nM | # (# is <25%) | < 25% |  |  |  |  | 
N#Cc1cc(CN2CCCC23CCN(C(=O)OC(C(F)(F)F)C(F)(F)F)CC3)cc(N2CCC(C(=O)O)CC2)c1 [Example 210] | < 25% |  | ### (### is ≥75%) | > 75% |  | ## (## is equal to or greater than 25% but less than 75%) | < 100 nM | # (# is <25%) | < 25% |  |  |  |  | 
O=C(O)[C@@H]1CCCN(c2cc(C(F)(F)F)ccc2CN2CCC3(CCN(C(=O)OC(C(F)(F)F)C(F)(F)F)CC3)C2)C1 [Example 211] | < 25% |  | ## (## is equal to or greater than 25% but less than 75%) | > 75% |  | # (# is <25%) | < 100 nM | # (# is <25%) | < 25% |  |  |  |  | 
O=C(O)[C@@H]1CCCN(c2cc(C(F)(F)F)ccc2CN2CCCC23CCN(C(=O)OC(C(F)(F)F)C(F)(F)F)CC3)C1 [Example 214] | < 25% |  | ### (### is ≥75%) | > 75% |  | # (# is <25%) | < 100 nM | # (# is <25%) | < 25% |  |  |  |  | 
CC1(C(=O)O)CCCN(c2cc(C(F)(F)F)ccc2CN2CCC3(CCN(C(=O)OC(C(F)(F)F)C(F)(F)F)CC3)C2)C1 (stereo not drawn) [Example 216] | < 25% |  | ## (## is equal to or greater than 25% but less than 75%) | > 75% |  | # (# is <25%) | < 100 nM | # (# is <25%) | 25 to 75% |  |  |  |  | 
O=C(O)[C@H]1CCCN(c2cc(C(F)(F)F)ccc2CN2CCCC23CCN(C(=O)OC(C(F)(F)F)C(F)(F)F)CC3)C1 [Example 217] | < 25% |  | ### (### is ≥75%) | > 75% |  | # (# is <25%) | < 100 nM | # (# is <25%) | < 25% |  |  |  |  | 
CC1(C(=O)O)CCCN(c2cc(CN3CCCC34CCN(C(=O)OC(C(F)(F)F)C(F)(F)F)CC4)cc(C(F)(F)F)c2)C1 (stereo not drawn) [Example 221] |  |  | ### (### is ≥75%) |  |  | # (# is <25%) |  | # (# is <25%) |  |  | < 25% | > 75% | < 100 nM | < 25%
